In PubChem BioAssay AID328 (DTP/NCI, 2004):
Values joined by “and” are separate entries in the source; they are usually repeats but may differ in a detail not shown here. Equal values may be shown once. Inconclusive results and toxic doses are left out. How the source made its calls: active means survival T/C of 150% or more; inactive means T/C below 125% in these data.

Test system: BDF1 mice, P388 leukemia ip, median survival T/C
Experiment: NCI In Vivo Anticancer Drug Screen. Data for tumor model P388 Leukemia (intraperitoneal) in B6D2F1 (BDF1) mice
Conditions: endpoint: median survival time, higher = longer survival
Outline: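 Vehicle-dosed animals serve as the reference; survival of compound-dosed, tumour-implanted mice is divided by it.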

[1] = dose: 6.25 mg/kg/injection, schedule: Q01DX009 (ip), vehicle: Klucel (hydroxypropylcellulose) (HPC)
[2] = dose: 50.0 mg/kg/injection, schedule: Q01DX009 (ip), vehicle: saline with Tween-80
[3] = dose: 100.0 mg/kg/injection, schedule: Q01DX009 (ip), vehicle: saline with Tween-80
[4] = dose: 12.5 mg/kg/injection, schedule: Q01DX009 (ip), vehicle: saline with Tween-80
[5] = dose: 25.0 mg/kg/injection, schedule: Q01DX009 (ip), vehicle: saline with Tween-80
[6] = dose: 100.0 mg/kg/injection, schedule: Q04DX003 (ip), vehicle: saline with Tween-80
[7] = dose: 200.0 mg/kg/injection, schedule: Q04DX003 (ip), vehicle: saline with Tween-80
[8] = dose: 400.0 mg/kg/injection, schedule: Q04DX003 (ip), vehicle: saline with Tween-80
[9] = dose: 200.0 mg/kg/injection, schedule: Q01DX009 (ip), vehicle: saline with Tween-80
[10] = dose: 50.0 mg/kg/injection, schedule: Q01DX009 (ip), vehicle: saline
[11] = dose: 100.0 mg/kg/injection, schedule: Q01DX009 (ip), vehicle: saline
[12] = dose: 200.0 mg/kg/injection, schedule: Q01DX009 (ip), vehicle: saline
[13] = dose: 100.0 mg/kg/injection, schedule: Q04DX003 (ip), vehicle: saline
[14] = dose: 200.0 mg/kg/injection, schedule: Q04DX003 (ip), vehicle: saline
[15] = dose: 400.0 mg/kg/injection, schedule: Q04DX003 (ip), vehicle: saline
[16] = dose: 400.0 mg/kg/injection, schedule: Q01DX009 (ip), vehicle: saline
[17] = dose: 50.0 mg/kg/injection, schedule: Q04DX003 (ip), vehicle: saline
[18] = dose: 100.0 mg/kg/injection, schedule: Q01DX010 (ip), vehicle: saline
[19] = dose: 400.0 mg/kg/injection, schedule: Q01DX010 (ip), vehicle: saline

Measured: T/C

CCNCc1cc(Nc2cc(C)nc(/N=C(\N)Nc3ccc(Cl)c(Cl)c3)n2)ccc1OC
inactive: [1] 90 % of control | dose: 8.75 mg/kg/injection, schedule: Q04DX003 (ip), vehicle: Klucel (hydroxypropylcellulose) (HPC) 112 % of control | dose: 12.5 mg/kg/injection, schedule: Q01DX009 (ip), vehicle: Klucel (hydroxypropylcellulose) (HPC) 100 % of control | dose: 17.5 mg/kg/injection, schedule: Q04DX003 (ip), vehicle: Klucel (hydroxypropylcellulose) (HPC) 108 % of control | dose: 25.0 mg/kg/injection, schedule: Q01DX009 (ip), vehicle: Klucel (hydroxypropylcellulose) (HPC) 90 % of control | dose: 33.0 mg/kg/injection, schedule: Q04DX003 (ip), vehicle: Klucel (hydroxypropylcellulose) (HPC) 116 % of control | dose: 35.0 mg/kg/injection, schedule: Q04DX003 (ip), vehicle: Klucel (hydroxypropylcellulose) (HPC) 108 % of control | dose: 50.0 mg/kg/injection, schedule: Q04DX003 (ip), vehicle: Klucel (hydroxypropylcellulose) (HPC) 108 % of control | dose: 75.0 mg/kg/injection, schedule: Q04DX003 (ip), vehicle: Klucel (hydroxypropylcellulose) (HPC) 108 % of control | dose: 80.0 mg/kg/injection, schedule: Q04DX003 (ip), vehicle: Klucel (hydroxypropylcellulose) (HPC) 109 % of control

CC(=O)N/N=C\C1=CCC=C(Br)S1
inactive: [2] 90 % of control | [3] 104 % of control

CCCC(C)(O)C#CC(C)(O)CCC (configuration not stated)
inactive: [4] 101 % of control | [5] 92 % of control | [2] 93 % of control | [6] 100 % of control | [7] 104 % of control | [8] 90 % of control

C=CCN(CC=C)c1ncnc2[nH]ncc12
inactive: [5] 100 % of control | [2] 100 % of control | [3] 109 % of control

ClC1(c2ccccc2)c2ccc(Br)cc2-c2cc(Br)ccc21
inactive: dose: 66.0 mg/kg/injection, schedule: Q01DX009 (ip), vehicle: saline with Tween-80 100 % of control | [3] 121 % of control | dose: 200.0 mg/kg/injection, schedule: Q01DX009 (ip), vehicle: Klucel (hydroxypropylcellulose) (HPC) 88 % of control

CCCn1cnc2c(=S)nc[nH]c21
inactive: [3] 108 % of control | [6] 109 % of control | [7] 118 % of control | [8] 113 % of control

O=C(NC(=O)c1c(F)cccc1F)Nc1ccc(Br)cc1
inactive: [2] 101 % of control | [3] 100 % of control | [9] 96 % of control

Cn1ncc2c(N)c(C#N)c(=O)[nH]c21
inactive: dose: 100.0 mg/kg/injection, schedule: Q01DX001 (ip), vehicle: saline with Tween-80 114 % of control

CCCC(=O)c1cc(O)c(O)cc1O
inactive: [4] 95 % of control | [5] 104 % of control | [2] 106 % of control

C=CC(=O)NC(C)C(=O)O (configuration not stated)
inactive: [10] 105 % of control | [11] 105 % of control | [12] 100 % of control

COCC(O)CN1CCN(c2ccccc2C)CC1 (configuration not stated)
inactive: [5] 87 % of control | [2] 95 % of control | [3] 91 % of control

Cc1ccc(NCc2cccc3ccccc23)c(C)c1
inactive: [13] 91 % of control | [14] 100 % of control | [15] 95 % of control

O=[N+]([O-])c1ccccc1C=Nc1ccccc1
inactive: dose: 100.0 mg/kg/injection, schedule: Q01DX001 (ip), vehicle: Klucel (hydroxypropylcellulose) (HPC) 100 % of control | [11] 105 % of control | dose: 100.0 mg/kg/injection, schedule: Q04DX003 (ip), vehicle: Klucel (hydroxypropylcellulose) (HPC) 100 % of control | dose: 200.0 mg/kg/injection, schedule: Q01DX001 (ip), vehicle: Klucel (hydroxypropylcellulose) (HPC) 104 % of control | [12] 90 % of control | dose: 200.0 mg/kg/injection, schedule: Q04DX003 (ip), vehicle: Klucel (hydroxypropylcellulose) (HPC) 110 % of control | dose: 400.0 mg/kg/injection, schedule: Q01DX001 (ip), vehicle: Klucel (hydroxypropylcellulose) (HPC) 95 % of control | [16] 90 % of control | dose: 400.0 mg/kg/injection, schedule: Q04DX003 (ip), vehicle: Klucel (hydroxypropylcellulose) (HPC) 100 % of control

C1=C(c2ccccc2)[P+](c2ccccc2)(c2ccccc2)C=C(c2ccccc2)[P+]1(c1ccccc1)c1ccccc1
inactive: dose: 11.0 mg/kg/injection, schedule: Q04DX003 (ip), vehicle: saline 115 % of control | dose: 12.5 mg/kg/injection, schedule: Q04DX003 (ip), vehicle: saline 123 % of control | dose: 17.0 mg/kg/injection, schedule: Q04DX003 (ip), vehicle: saline 123 % of control | dose: 37.0 mg/kg/injection, schedule: Q04DX003 (ip), vehicle: saline 100 % of control | [17] 119 % of control

CC(=O)Nc1ccc(S(=O)(=O)F)cc1
inactive: dose: 50.0 mg/kg/injection, schedule: Q04DX003 (ip), vehicle: saline with Tween-80 87 % of control | [6] 104 % of control | [7] 100 % of control

COc1cc(-c2nc3ccccc3c(=O)o2)cc(OC)c1OC
inactive: [2] 105 % of control | [3] 115 % of control | [6] 100 % of control | [9] 100 % of control | [7] 100 % of control

[CH3][Hg][O]C(C)=O
inactive: dose: 3.12 mg/kg/injection, schedule: Q01DX009 (ip), vehicle: Klucel (hydroxypropylcellulose) (HPC) 107 % of control | [1] 113 % of control

CC(=O)N(C)C(C(=O)N1CC(C)CC1C(=O)N(C)C1C(=O)NC(CC(C)C)C(=O)N2CC(C)CC2C(=O)NC(CC(C)C)C(=O)N(C)C(C(C)C)C(=O)N2CCCC2C(=O)N(C)C(CC(C)C)C(=O)NCC(=O)OC1C)C(C)C (configuration not stated)
inactive: dose: 37.5 mg/kg/injection, schedule: Q01DX009 (ip), vehicle: Klucel (hydroxypropylcellulose) (HPC) 107 % of control | dose: 75.0 mg/kg/injection, schedule: Q01DX009 (ip), vehicle: Klucel (hydroxypropylcellulose) (HPC) 107 % of control

OCC(O)C(O)C(O)C(O)CO (configuration not stated)
inactive: dose: 100.0 mg/kg/injection, schedule: Q01DX010 (ip), vehicle: carboxymethylcellulose (CMC) 100 % of control | [18] 95 % of control | dose: 400.0 mg/kg/injection, schedule: Q01DX010 (ip), vehicle: carboxymethylcellulose (CMC) 100 % of control | [19] 105 % of control and 110 % of control

CCOC(=O)C/C(C)=N/NC(=O)CC(=O)N/N=C(\C)CC(=O)OCC
inactive: dose: 75.0 mg/kg/injection, schedule: Q01DX009 (ip), vehicle: saline 109 % of control | dose: 150.0 mg/kg/injection, schedule: Q01DX009 (ip), vehicle: saline 105 % of control | dose: 300.0 mg/kg/injection, schedule: Q01DX009 (ip), vehicle: saline 103 % of control

O/N=c1/cc(-c2ccc(Cl)cc2)ss1
inactive: dose: 25.0 mg/kg/injection, schedule: Q01DX009 (ip), vehicle: saline 114 % of control | [17] 100 % of control and 113 % of control | [11] 106 % of control | [13] 93 % of control and 106 % of control and 110 % of control | [12] 92 % of control | [14] 96 % of control and 102 % of control | [16] 96 % of control | [15] 102 % of control | dose: 600.0 mg/kg/injection, schedule: Q04DX003 (ip), vehicle: saline 90 % of control

CN(C)C=Nc1cc(Cl)c(Cl)cc1Cl
inactive: [10] 100 % of control | [11] 110 % of control | [12] 111 % of control

CCCCCCCCCCCCCSCCCCCCCCCCCCSCCCCCCCCCCCC
inactive: dose: 100.0 mg/kg/injection, schedule: Q01DX001 (ip), vehicle: saline sonified 86 % of control | dose: 200.0 mg/kg/injection, schedule: Q01DX001 (ip), vehicle: saline sonified 86 % of control | dose: 400.0 mg/kg/injection, schedule: Q01DX001 (ip), vehicle: saline sonified 90 % of control

CC1=CP(=O)(O)CC1
inactive: [10] 95 % of control | [11] 95 % of control

N[C@@H](Cc1ccc(O)c(O)c1)C(=O)O
inactive: dose: 50.0 mg/kg/injection, schedule: Q01DX010 (ip), vehicle: saline 92 % of control | [18] 96 % of control | dose: 200.0 mg/kg/injection, schedule: Q01DX010 (ip), vehicle: saline 100 % of control | [19] 107 % of control

O=c1[nH]cc(CCCO)c(=O)[nH]1
inactive: [10] 91 % of control | [11] 102 % of control | [13] 109 % of control | [12] 100 % of control | [14] 100 % of control | [16] 100 % of control | [15] 109 % of control

CC(=O)N(O)c1ccc(Cl)cc1
inactive: dose: 25.0 mg/kg/injection, schedule: Q04DX002 (ip), vehicle: saline with Tween-80 91 % of control and 100 % of control | dose: 50.0 mg/kg/injection, schedule: Q04DX002 (ip), vehicle: saline with Tween-80 104 % of control and 110 % of control
